From patent publication US20070020704A1, “Diaryl ureas with kinase inhibiting activity” (priority 2003, published 2007)

Assays:
[1] = tested on: Raf Pathway phospho-ERK, Breast; experiment: Cellular assay Raf pathway phospho-ERK, breast (Bio-Plex phospho-ERK1/2 immunoassay); format: cell-based; details: Homo sapiens, inhibition of target phosphorylation in whole cells by 50%
Method: A 96-well phospho-ERK (PERK) immunoassay, using laser flow cytometry platform has been established to measure inhibition of basal pERK in cell lines. MDA-MB-231 cells were plated at 50,000 cells per well in 96-well microtitre plates in complete growth media. For effects of test compounds on basal pERK1/2 inhibition, the next day after plating, MDA-MB-231 cells were transferred to DMEM with 0.1% BSA and incubated with test compounds diluted 1:3 to a final concentration of 3 μM to 12 nM in 0.1% DMSO. Cells were incubated with test compounds for 2 h, washed, and lysed in Bio-Plex whole cell lysis buffer A. Samples are diluted with buffer B 1:1 (v/v) and directly transferred to assay plate or frozen at −80 C degrees until processed. 50 μL of diluted MDA-MB-231 cell lysates were incubated with about 2000 of 5 micron Bio-Plex beads conjugated with an anti-ERK1/2 antibody overnight on a shaker at room temperature. The next day, biotinylated phospho-ERK1/2 sandwich immunoassay was performed, beads are washed 3 times during each incubation and then 50 μL of PE-strepavidin was used as a developing reagent. The relative fluorescence units of pERK1/2 were detected by counting 25 beads with Bio-Plex flow cell (probe) at high sensitivity. The IC50 was calculated by taking untreated cells as maximum and no cells (beads only) as background.

[2] = tested on: Raf Pathway phospho-ERK, Melanoma; experiment: Cellular assay Raf pathway phospho-ERK, melanoma; format: cell-based
c-KIT phosphor-AKT = experiment: Cellular assay c-KIT pathway phosphor-AKT; format: cell-based
[3] = tested on: MIA PaCa-2 pancreatic (mutant k-Ras) xenograft; experiment: Tumor treatment, MIA PaCa-2 xenograft model; format: in vivo, CB17 SCID female mice; details: p.o., qd×14
Method: (§1) All treatments were administered p.o. on a qd×14 schedule. […] Similarly, the growth of MIA PaCa-2 tumors was inhibited 44%, 66%, and 73% at dosages of 10, 30, and 100 mg/kg/dose, respectively. The growth of NCI-H460 tumors was inhibited 27% and 56% at dosages of 10 and 30 mg/kg/dose of this Raf kinase inhibitor. The SK-OV-3 model was slightly more sensitive, generating 45%-81% tumor growth inhibitions at dosages of 3 to 100 mg/kg/dose.
HCT 116, SK-OV-3, and MIA PaCa-2 stock tumors were maintained as serial s.c. passages of fragments in CD-1 Nu/Nu female mice (HCT 116 and SK-OV-3) or CB17 SCID female mice (MIA-PaCa-2). Treatments were administered orally and were initiated against established tumors. Tumor dimensions were measured via calipers 2-3 times per week and were converted into tumor mass by the formula […], where L and W refer to the largest and smallest dimensions, respectively.

[4] = tested on: NCI-H460 lung (mutant k-Ras) xenograft; experiment: Tumor treatment, NCI-H460 xenograft model; format: in vivo; details: p.o., qd×14
Method: as §1

phospho-ERK = experiment: Immunohistochemical staining of tumor sections with anti-pERK antibodies (melanoma biopsies pre- and post-treatment); format: in vivo, human; details: subject having melanoma, 600 mg BID; post- vs pre-treatment biopsy
Text: 3. Immunohistochemical Staining of Tumor Sections with Anti-pERK Antibodies
Activated Raf kinase phosphorylates and activates MEK (mitogen-activated protein kinase kinase), which in turn phosphorylates and activates ERK (extracellular signal-regulated kinase), which translocates to the nucleus and modifies gene expression. This pathway is often aberrantly activated in tumor cells due to the presence of activated ras, mutant BRAF, or elevation of growth factor receptors. A semi-quantitative immunohistochemical method was developed to detect phosphorylated ERK (pERK) in human tumor biopsies as a patient selection biomarker for determining whether a patient will be responsive to a compound of the present invention, and also to assess its efficacy. The antibody used was a polyclonal antibody (rabbit) that detects the phosphorylation status of p44 and p42 (phospho-p44/42 MAPK (Thr202/Tyr204)) MAP kinases (ERK1 and ERK2). The procedure was accomplished as follows:
1. Tumor samples were obtained from patients. Samples were embedded in paraffin and sectioned.
2. […]
20. Each tissue section was assessed using the Bioquant TCW98 image analysis system. […]
A subject having a melanoma was treated with a compound in accordance with the present invention, and then a biopsy sample was assessed using the assay described above. […]

melanoma = experiment: Response of a subject having melanoma (PET and CT scans); format: in vivo, human; details: 600 mg BID
Method: A subject having a melanoma was treated with a compound in accordance with the present invention, and then a biopsy sample was assessed using the assay described above.
The subject was then administered a 600 mg BID dose of the compound.
A response to the compound was observed by comparing PET scans taken at baseline vs. the second cycle. […] This response corresponds with a decrease in the percent of nuclei expressing pERK in the post-treatment biopsy. […] The compound utilized was N-[4-chloro-3-(trifluoromethyl)phenyl]-N′-{4-[2-N-methylcarbamoyl-4-pyridyloxy]phenyl}urea.

HER2 Receptor = HER2 Receptor (Homo sapiens, UniProt P04626); details: cellular assay, HER 1 & 2 Pathway
Chain of HER2 Receptor (P04626 23-1255): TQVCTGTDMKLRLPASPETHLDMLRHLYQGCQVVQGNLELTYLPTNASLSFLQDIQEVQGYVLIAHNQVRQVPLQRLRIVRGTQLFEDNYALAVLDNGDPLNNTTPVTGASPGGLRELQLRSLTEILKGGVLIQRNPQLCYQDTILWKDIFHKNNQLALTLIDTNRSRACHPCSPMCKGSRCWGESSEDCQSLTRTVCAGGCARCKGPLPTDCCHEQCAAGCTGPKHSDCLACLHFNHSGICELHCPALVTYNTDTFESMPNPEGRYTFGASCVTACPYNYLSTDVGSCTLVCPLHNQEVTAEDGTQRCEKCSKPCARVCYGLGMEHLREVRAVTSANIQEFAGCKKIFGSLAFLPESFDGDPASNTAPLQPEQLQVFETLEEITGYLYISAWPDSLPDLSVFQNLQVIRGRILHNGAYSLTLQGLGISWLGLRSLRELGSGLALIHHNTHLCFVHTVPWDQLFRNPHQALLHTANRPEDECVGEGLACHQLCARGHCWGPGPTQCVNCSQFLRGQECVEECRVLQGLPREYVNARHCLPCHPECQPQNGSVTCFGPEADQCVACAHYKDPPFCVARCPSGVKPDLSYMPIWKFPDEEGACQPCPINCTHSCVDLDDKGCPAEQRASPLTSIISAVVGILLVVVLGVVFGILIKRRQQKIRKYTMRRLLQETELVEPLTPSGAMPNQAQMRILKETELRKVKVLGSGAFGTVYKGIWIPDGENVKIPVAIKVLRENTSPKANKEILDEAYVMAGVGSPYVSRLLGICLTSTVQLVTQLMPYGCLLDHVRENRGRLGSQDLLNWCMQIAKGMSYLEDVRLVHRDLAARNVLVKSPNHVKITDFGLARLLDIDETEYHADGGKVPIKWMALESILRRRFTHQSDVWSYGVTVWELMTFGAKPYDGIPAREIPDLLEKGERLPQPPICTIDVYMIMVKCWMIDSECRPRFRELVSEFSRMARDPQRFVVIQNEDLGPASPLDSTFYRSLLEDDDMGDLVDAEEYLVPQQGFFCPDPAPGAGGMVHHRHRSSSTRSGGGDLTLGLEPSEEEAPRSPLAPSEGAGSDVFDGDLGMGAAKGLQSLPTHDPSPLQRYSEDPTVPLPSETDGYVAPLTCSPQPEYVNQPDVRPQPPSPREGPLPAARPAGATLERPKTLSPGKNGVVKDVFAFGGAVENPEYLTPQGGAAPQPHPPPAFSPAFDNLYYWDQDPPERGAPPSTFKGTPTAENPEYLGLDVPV

SMILES	melting point [°C]	further results
CCNC(=O)c1cc(Oc2ccc(NC(=O)Nc3ccc(Br)c(C(F)(F)F)c3)cc2)ccn1 [Entry 88, N-[4-bromo-3-(trifluoromethyl)phenyl]({4-[2-(N-ethylcarbamoyl)(4-pyridyloxy)]phenyl}amino)carboxamide]	183 to 184	
CNC(=O)c1cc(Oc2ccc(NC(=O)Nc3cc(C(F)(F)F)ccc3OC)c(C)c2)ccn1 [Entry 16, {4-[4-({N-[2-methoxy-5-(trifluoromethyl)phenyl]carbamoyl}amino)-3-methylphenoxy](2-pyridyl)}-N-methylcarboxamide]	210 to 213	
CCNC(=O)c1cc(Oc2ccc(NC(=O)Nc3cc(C(F)(F)F)ccc3OC)cc2)ccn1 [Entry 19, ({4-[2-(N-ethylcarbamoyl)(4-pyridyloxy)]phenyl}amino)-N-[2-methoxy-5-(trifluoromethyl)phenyl]carboxamide]	194 to 196	
CNC(=O)c1cc(Oc2ccc(NC(=O)Nc3cc(C(F)(F)F)ccc3OC)cc2Cl)ccn1 [Entry 20, ({3-chloro-4-[2-(N-methylcarbamoyl)(4-pyridyloxy)]phenyl}amino)-N-[2-methoxy-5-(trifluoromethyl)phenyl]carboxamide]	214 to 216	
CNC(=O)c1cc(Oc2ccc(NC(=O)Nc3cc(C(F)(F)F)ccc3OC)c(Cl)c2)ccn1 [Entry 17, ({2-chloro-4-[2-(N-methylcarbamoyl)(4-pyridyloxy)]phenyl}amino)-N-[2-methoxy-5-(trifluoromethyl)phenyl]carboxamide]	187 to 188	
CNC(=O)c1cc(Oc2ccc(NC(=O)Nc3ccc(Br)c(C(F)(F)F)c3)cc2Cl)ccn1 [Entry 87, {4-[4-({[4-bromo-3-(trifluoromethyl)phenyl]amino}carbonylamino)-2-chlorophenoxy](2-pyridyl)}-N-methylcarboxamide]	217 to 219	
CNC(=O)c1cc(Sc2ccc(NC(=O)Nc3cc(C(F)(F)F)ccc3OC)cc2)ccn1 [Entry 27, N-[2-methoxy-5-(trifluoromethyl)phenyl]({4-[2-(N-methylcarbamoyl)(4-pyridylthio)]phenyl}amino)carboxamide]	218 to 219	
COc1ccc(C(F)(F)F)cc1NC(=O)Nc1ccc(Oc2ccnc(C(N)=O)c2)cc1 [Entry 14, 4-[4-({N-[2-methoxy-5-(trifluoromethyl)phenyl]carbamoyl}amino)phenoxy]pyridine-2-carboxamide]	114 to 117	
CNC(=O)c1cc(Oc2ccc(NC(=O)Nc3ccc(Cl)c(C(F)(F)F)c3)cc2)ccn1 [N-[4-chloro-3-(trifluoromethyl)phenyl]-N′-{4-[2-N-methylcarbamoyl-4-pyridyloxy]phenyl}urea]		IC50 [1]: 80 nM; IC50 [2]: 880 nM; IC50 (c-KIT phosphor-AKT): 402 nM; growth of MIA PaCa-2 tumors inhibited ([3]; 10 mg/kg/dose): 44%; growth of MIA PaCa-2 tumors inhibited ([3]; 30 mg/kg/dose): 66%; growth of MIA PaCa-2 tumors inhibited ([3]; 100 mg/kg/dose): 73%; growth of NCI-H460 tumors inhibited ([4]; 10 mg/kg/dose): 27%; growth of NCI-H460 tumors inhibited ([4]; 30 mg/kg/dose): 56%; percent of nuclei expressing pERK in the post-treatment biopsy (phospho-ERK): decrease; PET scan metabolic activity after treatment (melanoma; baseline vs. second cycle): completely silent; CT scan measurements by RECIST (melanoma; through cycle 6 of treatment): stable disease; IC50 (nM) (HER2 Receptor): INACTIVE
CNC(=O)c1cc(Oc2ccc(NC(=O)Nc3ccc(Cl)c(C(F)(F)F)c3)c(Cl)c2)ccn1 [Entry 49, {4-[3-chloro-4-({[4-chloro-3-(trifluoromethyl)phenyl]amino}carbonylamino)phenoxy](2-pyridyl)}-N-methylcarboxamide]	147 to 151	
CCNC(=O)c1cc(Oc2ccc(NC(=O)Nc3ccc(Cl)c(C(F)(F)F)c3)cc2)ccn1 [Entry 51, N-[4-chloro-3-(trifluoromethyl)phenyl]({4-[2-(N-ethylcarbamoyl)(4-pyridyloxy)]phenyl}amino)carboxamide]	187 to 189	
CNC(=O)c1cc(Oc2ccc(NC(=O)Nc3cc(C(F)(F)F)c(Cl)cc3OC)cc2Cl)ccn1 [Entry 97, N-[4-chloro-2-methoxy-5-(trifluoromethyl)phenyl]({3-chloro-4-[2-(N-methylcarbamoyl)(4-pyridyloxy)]phenyl}amino)carboxamide]	220 to 221	
CCNC(=O)c1cc(Oc2ccc(NC(=O)Nc3cc(C(F)(F)F)c(Cl)cc3OC)cc2)ccn1 [Entry 99, N-[4-chloro-2-methoxy-5-(trifluoromethyl)phenyl]({4-[2-(N-ethylcarbamoyl)(4-pyridyloxy)]phenyl}amino)carboxamide]	180 to 181	
CNC(=O)c1cc(Oc2ccc(NC(=O)Nc3cc(C(F)(F)F)c(Cl)cc3OC)cc2)ccn1 [Entry 95, N-[4-chloro-2-methoxy-5-(trifluoromethyl)phenyl]({4-[2-(N-methylcarbamoyl)(4-pyridyloxy)]phenyl}amino)carboxamide]	140 to 144	
CNC(=O)c1cc(Oc2ccc(NC(=O)Nc3cc(C(F)(F)F)c(Cl)cc3OC)c(Cl)c2)ccn1 [Entry 96, N-[4-chloro-2-methoxy-5-(trifluoromethyl)phenyl]({2-chloro-4-[2-(N-methylcarbamoyl)(4-pyridyloxy)]phenyl}amino)carboxamide]	244 to 245	
